Test results taken from patent US6645918B1, “N-([1,2,4]triazoloazinyl)thiophenesulfonamide compounds and their use as herbicides” (Dow AgroSciences LLC, priority 2000, dated 2003).

How the values were obtained:
Format in all cases: in vivo
[1] = system: velvetleaf (Abutilion theophrasti); experiment: Preemergence herbicidal activity, velvetleaf; conditions: soil spray, visual after 3 weeks, 0 no injury, 100 complete kill or no germination
Protocol: (§1) The soil matrix was contained in plastic pots with a surface area of 161 square centimeters. When required to ensure good germination and healthy plants, a fungicide treatment and/or other chemical or physical treatment was applied. A weighed amount, determined by the highest rate to be tested, of each test compound was placed in a 20 mL glass vial and was dissolved in 8 mL of a 97:3 v/v (volume/volume) mixture of acetone and dimethyl sulfoxide to obtain concentrated stock solutions. […] The stock solutions obtained were diluted with a 99.9:0.1 mixture of water and Tween® 155 surfactant (ethoxylated sorbitan fatty acid ester) to obtain application solutions of known concentration. The solutions containing the highest concentration to be tested were prepared by diluting 4 mL aliquots of the stock solution with 8.5 mL of the mixture and lower concentrations were prepared by dilution of appropriate smaller portions of the stock solution. A 2.5 mL aliquot of each solution of known concentration was sprayed evenly onto the soil of each seeded pot using a Cornwall 5.0 mL glass syringe fitted with a TeeJet TN-3 hollow cone nozzle to obtain thorough coverage of the soil in each pot. Control pots were sprayed in the same manner with the aqueous mixture. A highest application rate of 4.48 kg/ha is achieved when 50 mg of test compound is employed. The treated pots and control pots were placed in a greenhouse with an approximately 15 hr photoperiod which was maintained at about 23-29° C. during the day and 22-28° C. during the night. Nutrients and water were added on a regular basis and supplemental lighting was provided with overhead metal halide 1000 Watt lamps as necessary. The water was added by top-irrigation. After 3 weeks the condition of the test plants that germinated and grew as compared with that of the untreated plants that germinated and grew was determined visually and scored on a scale of 0 to 100 percent where 0 corresponds to no injury and 100 corresponds to complete kill or no germination.

[2] = system: morningglory (Ipomoea hederacea); experiment: Preemergence herbicidal activity, morningglory; conditions: soil spray, visual after 3 weeks, 0 no injury, 100 complete kill or no germination
Protocol: as §1

[3] = system: giant foxtail (Setaria faberi); experiment: Postemergence herbicidal activity, giant foxtail; conditions: foliar spray, visual after 2 weeks, 0 no injury, 100 complete kill
Protocol: (§2) Seeds of the desired test plant species were planted in Grace-Sierra MetroMix® 306 planting mixture, which typically has a pH of 6.0 to 6.8 and an organic matter content of about 30 percent, in plastic pots with a surface area of 64 square centimeters. When required to ensure good germination and healthy plants, a fungicide treatment and/or other chemical or physical treatment was applied. The plants were grown for 7-21 days in a greenhouse with an approximately 15 hr photoperiod which was maintained at about 23-29° C. during the day and 22-28° C. during the night. Nutrients and water were added on a regular basis and supplemental lighting was provided with overhead metal halide 1000 Watt lamps as necessary. The plants were employed for testing when they reached the first or second true leaf stage. A weighed amount of each test compound, determined by the highest rate to be tested, was placed in a 20 mL glass vial and was dissolved in 4 mL of a 97:3 v/v (volume/volume) mixture of acetone and dimethyl sulfoxide to obtain concentrated stock solutions. […] The concentrated stock solutions obtained were diluted with an aqueous mixture containing acetone, water, iso-propyl alcohol, dimethyl sulfoxide, Atplus 411F crop oil concentrate, and Triton X-155 surfactant (methylenebisdiamyl phenoxy polyethoxy ethanol) in a 48.5:39:10:1.5:1.0:0.02 v/v ratio to obtain spray solutions of known concentration. The solutions containing the highest concentration to be tested were prepared by diluting 2 mL aliquots of the stock solution with 13 mL of the mixture and lower concentrations were prepared by dilution of appropriate smaller portions of the stock solution. Approximately 1.5 mL aliquots of each solution of known concentration were sprayed evenly onto each of the test plant pots using a DeVilbiss atomizer driven by compressed air pressure of 2 to 4 psi (140 to 280 kilopascals) to obtain thorough coverage of each plant. Control plants were sprayed in the same manner with the aqueous mixture. In this test an application rate of 1 ppm results in the application of approximately 1 g/ha. The treated plants and control plants were placed in a greenhouse as described above and watered by sub-irrigation to prevent wash-off of the test compounds. After 2 weeks the condition of the test plants as compared with that of the untreated plants was determined visually and scored on a scale of 0 to 100 percent where 0 corresponds to no injury and 100 corresponds to complete kill.

wild oats (Avena fatua) [4] = experiment: Preemergence herbicidal activity, wild oats; conditions: soil spray, visual after 3 weeks, 0 no injury, 100 complete kill or no germination
Protocol: as §1

[5] = system: cocklebur (Xanthium strumarium); experiment: Preemergence herbicidal activity, cocklebur; conditions: soil spray, visual after 3 weeks, 0 no injury, 100 complete kill or no germination
Protocol: as §1

[6] = system: Rox orange sorghum (Sorghum bicolor); experiment: Postemergence herbicidal activity, Rox orange sorghum; conditions: foliar spray, visual after 2 weeks, 0 no injury, 100 complete kill
Protocol: as §2

wild oats (Avena fatua) [7] = experiment: Postemergence herbicidal activity, wild oats; conditions: foliar spray, visual after 2 weeks, 0 no injury, 100 complete kill
Protocol: as §2

[8] = system: chickweed (Stellaria media); experiment: Postemergence herbicidal activity, chickweed; conditions: foliar spray, visual after 2 weeks, 0 no injury, 100 complete kill
Protocol: as §2

[9] = system: pigweed (Amaranthus retroflexus); experiment: Postemergence herbicidal activity, pigweed; conditions: foliar spray, visual after 2 weeks, 0 no injury, 100 complete kill
Protocol: as §2

[10] = system: blackgrass (Alopecurus myosuroides); experiment: Preemergence herbicidal activity, blackgrass; conditions: soil spray, visual after 3 weeks, 0 no injury, 100 complete kill or no germination
Protocol: as §1

[11] = system: giant foxtail (Setaria faberi); experiment: Preemergence herbicidal activity, giant foxtail; conditions: soil spray, visual after 3 weeks, 0 no injury, 100 complete kill or no germination
Protocol: as §1

[12] = system: velvetleaf (Abutilion theophrasti); experiment: Postemergence herbicidal activity, velvetleaf; conditions: foliar spray, visual after 2 weeks, 0 no injury, 100 complete kill
Protocol: as §2

[13] = system: pigweed (Amaranthus retroflexus); experiment: Preemergence herbicidal activity, pigweed; conditions: soil spray, visual after 3 weeks, 0 no injury, 100 complete kill or no germination
Protocol: as §1

[14] = system: crabgrass (Digitaria sanguinalis); experiment: Preemergence herbicidal activity, crabgrass; conditions: soil spray, visual after 3 weeks, 0 no injury, 100 complete kill or no germination
Protocol: as §1

[15] = system: cocklebur (Xanthium strumarium); experiment: Postemergence herbicidal activity, cocklebur; conditions: foliar spray, visual after 2 weeks, 0 no injury, 100 complete kill
Protocol: as §2

[16] = system: lambsquarters (Chenopodium album); experiment: Preemergence herbicidal activity, lambsquarters; conditions: soil spray, visual after 3 weeks, 0 no injury, 100 complete kill or no germination
Protocol: as §1

[17] = system: Rox orange sorghum (Sorghum bicolor); experiment: Preemergence herbicidal activity, Rox orange sorghum; conditions: soil spray, visual after 3 weeks, 0 no injury, 100 complete kill or no germination
Protocol: as §1

[18] = system: lambsquarters (Chenopodium album); experiment: Postemergence herbicidal activity, lambsquarters; conditions: foliar spray, visual after 2 weeks, 0 no injury, 100 complete kill
Protocol: as §2

[19] = system: wild buckwheat (Polygonum convolvulus); experiment: Postemergence herbicidal activity, wild buckwheat; conditions: foliar spray, visual after 2 weeks, 0 no injury, 100 complete kill
Protocol: as §2

viola (Viola tricolor) = experiment: Postemergence herbicidal activity, viola; conditions: foliar spray, visual after 2 weeks, 0 no injury, 100 complete kill
Protocol: as §2

[20] = system: morningglory (Ipomoea hederacea); experiment: Postemergence herbicidal activity, morningglory; conditions: foliar spray, visual after 2 weeks, 0 no injury, 100 complete kill
Protocol: as §2

[21] = system: blackgrass (Alopecurus myosuroides); experiment: Postemergence herbicidal activity, blackgrass; conditions: foliar spray, visual after 2 weeks, 0 no injury, 100 complete kill
Protocol: as §2

[22] = system: barnyardgrass (Echinochloa crus-galli); experiment: Preemergence herbicidal activity, barnyardgrass; conditions: soil spray, visual after 3 weeks, 0 no injury, 100 complete kill or no germination
Protocol: as §1

[23] = system: wild poinsettia (Euphorbia heterophylla); experiment: Preemergence herbicidal activity, wild poinsettia; conditions: soil spray, visual after 3 weeks, 0 no injury, 100 complete kill or no germination
Protocol: as §1

SMILES: COc1csc(Cl)c1S(=O)(=O)Nc1nc2c(C)cnc(OC)n2n1 [Compound 21]
- ABUTH preemergence injury score 0-100 ([1]; 8.8 g/Ha): 80%
- IPOHE preemergence injury score 0-100 ([2]; 8.8 g/Ha): 40%
- SETFA postemergence injury score 0-100 ([3]; 62.5 ppm): 50%
- AVEFA preemergence injury score 0-100 (wild oats (Avena fatua) [4]; 8.8 g/Ha): 70%
- XANST preemergence injury score 0-100 ([5]; 8.8 g/Ha): 50%
- SORBI postemergence injury score 0-100 ([6]; 62.5 ppm): 100%
- AVEFA postemergence injury score 0-100 (wild oats (Avena fatua) [7]; 62.5 ppm): 75%
- STEME postemergence injury score 0-100 ([8]; 62.5 ppm): 100%
- AMARE postemergence injury score 0-100 ([9]; 62.5 ppm): 100%
- ALOMY preemergence injury score 0-100 ([10]; 8.8 g/Ha): 70%
- SETFA preemergence injury score 0-100 ([11]; 8.8 g/Ha): 70%
- ABUTH postemergence injury score 0-100 ([12]; 62.5 ppm): 100%
- AMARE preemergence injury score 0-100 ([13]; 8.8 g/Ha): 60%
- DIGSA preemergence injury score 0-100 ([14]; 8.8 g/Ha): 40%
- XANST postemergence injury score 0-100 ([15]; 62.5 ppm): 90%
- CHEAL preemergence injury score 0-100 ([16]; 8.8 g/Ha): 70%
- SORBI preemergence injury score 0-100 ([17]; 8.8 g/Ha): 70%
- CHEAL postemergence injury score 0-100 ([18]; 62.5 ppm): 100%
- POLCO postemergence injury score 0-100 ([19]; 62.5 ppm): 100%
- VIOTR postemergence injury score 0-100 (viola (Viola tricolor); 62.5 ppm): 90%
- IPOHE postemergence injury score 0-100 ([20]; 62.5 ppm): 80%
- ALOMY postemergence injury score 0-100 ([21]; 62.5 ppm): 30%
- ECHCG preemergence injury score 0-100 ([22]; 8.8 g/Ha): 30%
- EPHHL preemergence injury score 0-100 ([23]; 8.8 g/Ha): 60%

SMILES: COc1cc(OC)n2nc(NS(=O)(=O)c3c(OC)csc3C(F)(F)F)nc2n1 [Compound 25]
- ABUTH preemergence injury score 0-100 ([1]; 17.5 g/Ha): 80%
- IPOHE preemergence injury score 0-100 ([2]; 17.5 g/Ha): 60%
- SETFA postemergence injury score 0-100 ([3]; 31 ppm): 80%
- AVEFA preemergence injury score 0-100 (wild oats (Avena fatua) [4]; 17.5 g/Ha): 80%
- XANST preemergence injury score 0-100 ([5]; 17.5 g/Ha): 50%
- SORBI postemergence injury score 0-100 ([6]; 31 ppm): 95%
- AVEFA postemergence injury score 0-100 (wild oats (Avena fatua) [7]; 31 ppm): 80%
- STEME postemergence injury score 0-100 ([8]; 31 ppm): 60%
- AMARE postemergence injury score 0-100 ([9]; 31 ppm): 90%
- ALOMY preemergence injury score 0-100 ([10]; 17.5 g/Ha): 95%
- SETFA preemergence injury score 0-100 ([11]; 17.5 g/Ha): 85%
- ABUTH postemergence injury score 0-100 ([12]; 31 ppm): 70%
- AMARE preemergence injury score 0-100 ([13]; 17.5 g/Ha): 95%
- DIGSA preemergence injury score 0-100 ([14]; 17.5 g/Ha): 85%
- XANST postemergence injury score 0-100 ([15]; 31 ppm): 90%
- CHEAL preemergence injury score 0-100 ([16]; 17.5 g/Ha): 90%
- SORBI preemergence injury score 0-100 ([17]; 17.5 g/Ha): 90%
- CHEAL postemergence injury score 0-100 ([18]; 31 ppm): 90%
- POLCO postemergence injury score 0-100 ([19]; 31 ppm): 70%
- VIOTR postemergence injury score 0-100 (viola (Viola tricolor); 31 ppm): 70%
- IPOHE postemergence injury score 0-100 ([20]; 31 ppm): 70%
- ALOMY postemergence injury score 0-100 ([21]; 31 ppm): 80%
- ECHCG preemergence injury score 0-100 ([22]; 17.5 g/Ha): 85%
- EPHHL preemergence injury score 0-100 ([23]; 17.5 g/Ha): 80%
